Results on 2 substances are retold here after patent US12097190B2, “Therapeutic use of levorotatory β-lactams in hematopoiesis, immuno-oncology therapy, and regulation of lipoprotein and apolipoprotein levels” (Alpha-1 Biologics, LLC, priority 2017, dated 2024).

The test system of assay [1] is HIV non-permissive (minus) clone 17. Nature of the assay: Adherence assay on coverslips, U937 minus clone 17. The assay is classed as cell-based, human. As to the method: (§1) To coverslips prepared with chemoattractants as described above, 10^6 cells in 90 μl HBSS were mixed to uniformity, and incubated for 30 min in humidified 5% CO2 at 37° C. without dehydration. To detect interacting effects of stimulants, cells were delivered in an 80 μl volume to coverslips previously prepared with 10 μl of one stimulant, mixed to uniformity, and incubated for 15 min at 37° C. Subsequently, an additional stimulant was delivered in a 10 μl volume to each coverslip, mixed with pre-incubated cells to uniformity, and incubated for 30-60 min at 37° C. […] Slides were examined by epi-illumination UV microscopy on a Zeiss Axioskop Means and standard deviations were determined by counting adherent cells in at least three fields/coverslip.
(§2) Means and standard deviations represent the difference between stimulated and unstimulated adherence. […] Adherence was optimized for each chemoattractant and adherence induced by each chemoattractant was enumerated in more than three separate experiments.

Assay [2] concerns HIV permissive (plus) clone 10. The experiment in a line: Adherence assay on coverslips, U937 plus clone 10. The assay is classed as cell-based, human. As to the method: as §1, §2
The next assay deals with CD4+ T lymphocytes. The settings on record: cited from earlier work.
Assay [3] relates to Human acute myeloid leukemia cells (AML). The note with it: cited from earlier work.
Assay [4] deals with transplanted human stem cells, transplanted AML cells. The note with it: mouse model; cited from earlier work.

On to Ser-Phe-Leu-Leu-Arg-Asn [SFLLRN], for which the stimulation of adherence result in assay [1] and in assay [2] was “Neither subclone was influenced” in each case.

Regarding “α1PI: abundant proteinase inhibitor alpha-1 proteinase inhibitor (α1PI, α1 antitrypsin)”, the “CD4+ counts” value in the assay on CD4+ T lymphocytes (HIV-1-infected patients with acquired and uninfected patients with inherited α1PI deficiency) is recorded as “caused an increase in CD4+ counts”. Moreover, the LDL in subjects result with CD4+ T lymphocytes (α1PI treatment) is reported as “produced decreased LDL”. For the same substance, in assay [3] (AML cells), the SDF-1-induced pseudopodia formation entry was “prevented”. Further, in assay [3] (pre-incubation of AML cells), the SDF-1 dependent migration result is “significantly reduced”. In addition, the “homing of stem cells to and egress of AML cells from bone marrow” value in assay [4] was “inhibited homing of transplanted human stem cells to bone marrow and egress of transplanted AML cells from bone marrow”.
